Drawing on patent US8178668B2, “2-aminopyridine kinase inhibitors” (OSI Pharmaceuticals, LLC, priority 2008, dated 2012), this text covers IC50 for 25 molecules.

Experiment [1] concerns the target MET (human) (Homo sapiens, UniProt P08581). Kind of experiment: MET kinase AlphaScreen assay (Km of ATP). The experiment is classed as biochemical. The conditions noted are these: ATP at Km; at least duplicate experiments. As to the method:
(§1) Person skilled in the art will appreciate that a variety of assay formats may be used to determine the activity of the compounds of this invention. For example, AlphaScreen (Amplified Luminescent Proximity Homogeneous Assay) technology was used with the kinases described below. Assay ATP concentrations for individual kinases are included in the text.
MET (human)—Km of ATP: MET assay is performed in a 384 well assay containing 200 ng/μL biotinylated poly(Glu,Tyr), 0.334 mM vanadate, desired concentration of ATP optimized for the enzyme in assay buffer (50 mM HEPES (pH=7.4), 5 mM MgCl2, 5 mM MnCl2, and 1% glycerol). Desired compound is added in a final concentration of 1% DMSO with control being vehicle of DMSO alone. MET is diluted to the optimized concentration (optimized on a lot-by-lot basis) in an enzyme diluent buffer (50 mM Tris pH=7.4, 1% glycerol, 0.03% Brij35, 0.24 mM EGTA, 1 mM DTT, and 0.003% BSA). Enzyme is added to initiate the reaction and incubated for 60 min at RT. In subdued light, appropriate amount of PT66 donor and acceptor beads (diluted 1:260 from manufacturer's provision in a 25 mM Tris HCl (pH=7.5), 400 mM NaCl, 100 mM EDTA, 0.3% BSA buffer) are added to the wells. The plates, incubated for 1 h, are read on an AlphaQuest plate reader

Experiment [2] addresses RON (human) (Homo sapiens, UniProt Q04912). Briefly: RON kinase AlphaScreen assay (Km of ATP). The experiment is classed as biochemical. Conditions: ATP at Km; at least duplicate experiments. As to the method:
as §1
RON (human)—Km of ATP: RON assay is performed in a 384 well assay containing 200 ng/μL biotinylated poly(Glu,Tyr), 0.334 mM vanadate, desired concentration of ATP optimized for the enzyme in assay buffer (50 mM HEPES (pH=7.4), 12.5 mM MgCl2 and 1% glycerol). Desired compound is added in a final concentration of 1% DMSO with control being vehicle of DMSO alone. RON is diluted to the optimized (on a lot-by-lot basis) concentration in an enzyme diluent buffer (50 mM HEPES pH=7.4, 12.5 mM MgCl2 and 1% glycerol, 0.03% Brij35, 0.3 mM EGTA, lmM DTT, and 0.003% BSA). Enzyme is added to initiate the reaction and incubated for 30 min at RT. In subdued light, appropriate amount of PT66 donor and acceptor beads (diluted 1:260 from manufacturer's provision in a 25 mM Tris HCl (pH=7.5), 200 mM NaCl, 100 mM EDTA, 0.3% BSA buffer) are added to the wells. The plates, incubated for 1 h, are read on an AlphaQuest plate reader.
A general note: Bead proximity is the source of the signal in Alpha formats.

Where a name gives a salt, the structure may show the parent alone.

Chain of MET (human) (P08581 25-1390): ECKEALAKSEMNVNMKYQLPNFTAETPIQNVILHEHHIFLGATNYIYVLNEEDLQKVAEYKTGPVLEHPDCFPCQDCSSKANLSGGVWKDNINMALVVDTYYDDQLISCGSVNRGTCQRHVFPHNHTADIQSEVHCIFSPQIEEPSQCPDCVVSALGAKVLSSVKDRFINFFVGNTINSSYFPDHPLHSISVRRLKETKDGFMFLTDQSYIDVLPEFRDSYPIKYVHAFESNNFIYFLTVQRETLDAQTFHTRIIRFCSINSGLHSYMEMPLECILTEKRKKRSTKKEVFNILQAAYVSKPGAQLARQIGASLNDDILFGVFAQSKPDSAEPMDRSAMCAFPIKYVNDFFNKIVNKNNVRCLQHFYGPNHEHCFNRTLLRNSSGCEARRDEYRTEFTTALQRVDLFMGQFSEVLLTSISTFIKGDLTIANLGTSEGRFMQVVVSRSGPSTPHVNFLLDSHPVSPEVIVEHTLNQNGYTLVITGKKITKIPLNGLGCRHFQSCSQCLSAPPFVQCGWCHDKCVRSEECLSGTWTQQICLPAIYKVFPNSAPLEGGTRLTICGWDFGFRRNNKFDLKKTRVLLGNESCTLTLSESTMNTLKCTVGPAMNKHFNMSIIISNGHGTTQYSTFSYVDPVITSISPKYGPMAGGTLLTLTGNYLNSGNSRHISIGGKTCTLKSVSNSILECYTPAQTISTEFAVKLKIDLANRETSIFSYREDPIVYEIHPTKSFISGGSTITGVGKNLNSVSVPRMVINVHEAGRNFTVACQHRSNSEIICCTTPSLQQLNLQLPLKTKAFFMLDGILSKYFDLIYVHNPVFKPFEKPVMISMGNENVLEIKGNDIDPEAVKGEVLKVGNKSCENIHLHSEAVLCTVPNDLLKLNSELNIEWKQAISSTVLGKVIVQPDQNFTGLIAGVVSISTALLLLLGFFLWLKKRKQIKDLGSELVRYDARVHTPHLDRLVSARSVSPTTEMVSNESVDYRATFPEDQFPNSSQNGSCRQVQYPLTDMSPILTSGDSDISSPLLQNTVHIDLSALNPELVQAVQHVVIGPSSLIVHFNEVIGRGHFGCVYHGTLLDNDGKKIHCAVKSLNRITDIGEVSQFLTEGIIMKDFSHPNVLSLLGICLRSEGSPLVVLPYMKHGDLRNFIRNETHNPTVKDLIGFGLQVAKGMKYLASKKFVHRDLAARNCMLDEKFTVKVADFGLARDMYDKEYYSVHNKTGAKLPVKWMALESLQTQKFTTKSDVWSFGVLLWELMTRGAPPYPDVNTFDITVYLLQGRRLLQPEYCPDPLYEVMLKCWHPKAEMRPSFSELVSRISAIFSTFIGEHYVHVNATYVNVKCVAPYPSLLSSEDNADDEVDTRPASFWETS
Chain of RON (human) (Q04912 25-1400): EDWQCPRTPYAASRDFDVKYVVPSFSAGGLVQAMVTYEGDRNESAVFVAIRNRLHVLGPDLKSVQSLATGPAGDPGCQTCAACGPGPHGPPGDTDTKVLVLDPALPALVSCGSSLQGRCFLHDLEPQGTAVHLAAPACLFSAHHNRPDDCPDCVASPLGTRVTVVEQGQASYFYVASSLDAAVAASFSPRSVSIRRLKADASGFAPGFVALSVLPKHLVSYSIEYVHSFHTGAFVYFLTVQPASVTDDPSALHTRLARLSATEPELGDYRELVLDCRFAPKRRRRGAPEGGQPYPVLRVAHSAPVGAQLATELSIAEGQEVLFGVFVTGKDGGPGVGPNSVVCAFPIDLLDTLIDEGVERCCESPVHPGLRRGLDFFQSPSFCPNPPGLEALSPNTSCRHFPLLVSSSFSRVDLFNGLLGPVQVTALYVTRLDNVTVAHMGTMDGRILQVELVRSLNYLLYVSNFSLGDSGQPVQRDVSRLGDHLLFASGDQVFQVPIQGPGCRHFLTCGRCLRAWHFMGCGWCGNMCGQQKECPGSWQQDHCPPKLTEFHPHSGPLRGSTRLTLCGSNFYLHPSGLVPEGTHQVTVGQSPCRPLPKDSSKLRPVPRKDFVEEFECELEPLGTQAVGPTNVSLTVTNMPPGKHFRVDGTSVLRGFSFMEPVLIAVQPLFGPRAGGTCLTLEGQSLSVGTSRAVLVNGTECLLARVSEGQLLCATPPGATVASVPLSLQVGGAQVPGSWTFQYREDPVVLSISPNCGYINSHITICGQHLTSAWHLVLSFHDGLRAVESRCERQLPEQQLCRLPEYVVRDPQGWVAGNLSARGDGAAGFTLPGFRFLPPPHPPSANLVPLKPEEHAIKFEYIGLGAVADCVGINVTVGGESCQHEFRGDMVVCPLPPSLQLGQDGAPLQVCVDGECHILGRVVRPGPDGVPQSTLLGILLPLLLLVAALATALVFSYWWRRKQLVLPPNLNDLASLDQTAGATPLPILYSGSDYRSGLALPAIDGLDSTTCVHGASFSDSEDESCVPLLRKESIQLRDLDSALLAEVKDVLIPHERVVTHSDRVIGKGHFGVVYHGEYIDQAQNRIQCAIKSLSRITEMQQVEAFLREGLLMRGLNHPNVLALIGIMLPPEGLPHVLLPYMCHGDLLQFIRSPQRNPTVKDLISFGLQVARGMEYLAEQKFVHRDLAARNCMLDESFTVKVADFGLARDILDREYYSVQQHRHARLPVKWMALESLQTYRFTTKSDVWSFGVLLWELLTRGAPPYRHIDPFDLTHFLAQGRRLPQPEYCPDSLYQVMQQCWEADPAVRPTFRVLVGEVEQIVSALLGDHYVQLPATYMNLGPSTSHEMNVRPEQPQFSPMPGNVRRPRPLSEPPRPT

For the molecule `Nc1ncc(-c2cnn(C3CCNCC3)c2)cc1-c1cc2c(Br)cccc2cn1` [Example 22, 3-(5-Bromoisoquinolin-3-yl)-5-(1-piperidin-4-yl-1H-pyrazol-4-yl)-pyridin-2-ylamine trihydrochloride salt], the IC50 in experiment [1] was 100 to 1000 nM; in experiment [2], 1000 to 20000 nM.

On to `Nc1ncc(-c2cnn(C3CCNCC3)c2)cc1-c1cc2cc(Br)ccc2cn1` [Example 23, 3-(6-Bromoisoquinolin-3-yl)-5-(1-piperidin-4-yl-1H-pyrazol-4-yl)-pyridin-2-ylamine trihydrochloride salt], for which the IC50 in experiment [1] and in experiment [2] was 100 to 1000 nM each time.

Take `Nc1ncc(-c2cnn(C3CCNCC3)c2)cc1-c1cc2cccc(Br)c2cn1` [Example 24, 3-(8-Bromoisoquinolin-3-yl)-5-(1-piperidin-4-yl-1H-pyrazol-4-yl)-pyridin-2-ylamine trihydrochloride salt]: the IC50 in experiment [1] and in experiment [2] was 100 to 1000 nM throughout.

Regarding `Nc1ncc(-c2cnn(C3CCNCC3)c2)cc1-c1cc2cc(-c3ccccc3)ccc2cn1` [Example 25, 3-(6-Phenylisoquinolin-3-yl)-5-(1-piperidin-4-yl-1H-pyrazol-4-yl)-pyridin-2-ylamine tri-hydrochloride salt], the IC50 in experiment [1] and in experiment [2] was 100 to 1000 nM each time.

With `Nc1ncc(-c2cnn(C3CCNCC3)c2)cc1-c1cc2ccc(-c3ccccc3)cc2cn1` [Example 26, 3-(7-Phenylisoquinolin-3-yl)-5-(1-piperidin-4-yl-1H-pyrazol-4-yl)-pyridin-2-ylamine tri-hydrochloride salt], the concentration for half-maximal inhibition (IC50) in experiment [1] and in experiment [2] was 100 to 1000 nM throughout.

On to `Nc1ncc(-c2cnn(C3CCNCC3)c2)cc1-c1cc2c(O)cccc2cn1` [Example 27, 3-[2-Amino-5-(1-piperidin-4-yl-1H-pyrazol-4-yl)-pyridin-3-yl]-isoquinolin-5-ol tri-hydrochloride salt], for which the IC50 in experiment [1] and in experiment [2] was 100 to 1000 nM throughout.

As for `Nc1ncc(-c2cnn(C3CCNCC3)c2)cc1-c1cc2cc(O)ccc2cn1` [Example 28, 3-[2-Amino-5-(1-piperidin-4-yl-1H-pyrazol-4-yl)-pyridin-3-yl]-isoquinolin-6-ol trihydrochloride salt], the IC50 was 100 to 1000 nM in experiment [1] and 1000 to 20000 nM in experiment [2].

For `Nc1ncc(-c2cnn(C3CCNCC3)c2)cc1-c1cc2ccc(O)cc2cn1` [Example 29, 3-[2-Amino-5-(1-piperidin-4-yl-1H-pyrazol-4-yl)-pyridin-3-yl]-isoquinolin-7-ol], the IC50 in experiment [1] and in experiment [2] was 100 to 1000 nM in each case.

As to `COc1nc(-c2cc(-c3cnn(C4CCNCC4)c3)cnc2N)cc2ccccc12` [Example 30, 3-(1-Methoxyisoquinolin-3-yl)-5-(1-piperidin-4-yl-1H-pyrazol-4-yl)-pyridin-2-ylamine trihydrochloride salt], the results for the IC50 in experiment [1] and in experiment [2] were 100 to 1000 nM and 1000 to 20000 nM, respectively.

With `N#Cc1ccc2cnc(-c3cc(-c4cnn(C5CCNCC5)c4)cnc3N)cc2c1` [Example 31, 3-[2-Amino-5-(1-piperidin-4-yl-1H-pyrazol-4-yl)-pyridin-3-yl]-isoquinoline-6-carbonitrile trihydrochloride salt], the IC50 in experiment [1] and in experiment [2] was 1000 to 20000 nM each time.

`N#Cc1ccc2cc(-c3cc(-c4cnn(C5CCNCC5)c4)cnc3N)ncc2c1` [Example 32, 3-[2-Amino-5-(1-piperidin-4-yl-1H-pyrazol-4-yl)-pyridin-3-yl]-isoquinoline-7-carbonitrile trihydrochloride salt]: the IC50 in experiment [1] and in experiment [2] was 100 to 1000 nM each time.

For `N#Cc1cccc2cnc(-c3cc(-c4cnn(C5CCNCC5)c4)cnc3N)cc12` [Example 33, 3-[2-Amino-5-(1-piperidin-4-yl-1H-pyrazol-4-yl)-pyridin-3-yl]-isoquinoline-5-carbonitrile trihydrochloride salt], the IC50 in experiment [1] and in experiment [2] was 100 to 1000 nM in each case.

On to `Nc1ncc(-c2cnn(C3CCNCC3)c2)cc1-c1cc2ccc(F)cc2cn1` [Example 34, 3-(7-Fluoroisoquinolin-3-yl)-5-(1-piperidin-4-yl-1H-pyrazol-4-yl)-pyridin-2-ylamine], for which the IC50 in experiment [1] was 100 to 1000 nM; in experiment [2], 1000 to 20000 nM.

As for `Nc1ncc(-c2cnn(C3CCNCC3)c2)cc1-c1cc2cc(F)ccc2cn1` [Example 35, 3-(6-Fluoroisoquinolin-3-yl)-5-(1-piperidin-4-yl-1H-pyrazol-4-yl)-pyridin-2-ylamine], the IC50 in experiment [1] and in experiment [2] was 1000 to 20000 nM throughout.

On to `N#Cc1cccc2cc(-c3cc(-c4cnn(C5CCNCC5)c4)cnc3N)ncc12` [Example 36, 3-[2-Amino-5-(1-piperidin-4-yl-1H-pyrazol-4-yl)-pyridin-3-yl]-isoquinoline-8-carbonitrile trihydrochloride salt], for which the IC50 in experiment [1] and in experiment [2] was 100 to 1000 nM throughout.

As for `N#Cc1ccc(F)c2cnc(-c3cc(-c4cnn(C5CCNCC5)c4)cnc3N)cc12` [Example 37, 3-[2-Amino-5-(1-piperidin-4-yl-1H-pyrazol-4-yl)-pyridin-3-yl]-8-fluoro-isoquinoline-5-carbonitrile trihydrochloride], the IC50 in experiment [1] and in experiment [2] was 100 to 1000 nM each time.

Take `Nc1ncc(-c2cnn(C3CCNCC3)c2)cc1-c1cc2ccc(F)c(Cl)c2cn1` [Example 38, 3-(8-Chloro-7-fluoroisoquinolin-3-yl)-5-(1-piperidin-4-yl-1H-pyrazol-4-yl)-pyridin-2-ylamine trihydrochloride salt]: the figures for the IC50 in experiment [1] and in experiment [2] were at most 100 nM and 100 to 1000 nM, respectively.

Take `Nc1ncc(-c2cnn(C3CCNCC3)c2)cc1-c1cc2cccc(F)c2cn1` [Example 39, 3-(8-Fluoroisoquinolin-3-yl)-5-(1-piperidin-4-yl-1H-pyrazol-4-yl)-pyridin-2-ylamine]: the IC50 in experiment [1] is at most 100 nM; in experiment [2], 100 to 1000 nM.

Regarding `Nc1ncc(-c2cnn(C3CCNCC3)c2)cc1-c1cc2cc(Cl)ccc2cn1` [Example 40, 3-(6-Chloroisoquinolin-3-yl)-5-(1-piperidin-4-yl-1H-pyrazol-4-yl)-pyridin-2-ylamine trihydrochloride], the half-maximal inhibitory concentration (IC50) in experiment [1] and in experiment [2] was 100 to 1000 nM in each case.

In the case of `Nc1ncc(-c2cnn(C3CCNCC3)c2)cc1-c1cc2ccc(Cl)cc2cn1` [Example 41, 3-(7-Chloroisoquinolin-3-yl)-5-(1-piperidin-4-yl-1H-pyrazol-4-yl)-pyridin-2-ylamine trihydrochloride], the IC50 in experiment [1] was in the range of 100 to 1000 nM; in experiment [2], 1000 to 20000 nM.

In the case of `Nc1ncc(-c2cnn(C3CCNCC3)c2)cc1-c1cc2c(Cl)cccc2cn1` [Example 42, 3-(5-Chloroisoquinolin-3-yl)-5-(1-piperidin-4-yl-1H-pyrazol-4-yl)-pyridin-2-ylamine trihydrochloride], the IC50 in experiment [1] and in experiment [2] was 100 to 1000 nM throughout.

In the case of `Nc1ncc(-c2cnn(C3CCNCC3)c2)cc1-c1cc2cc(Cl)cc(Cl)c2cn1` [Example 43, 3-(6,8-Dichloroisoquinolin-3-yl)-5-(1-piperidin-4-yl-1H-pyrazol-4-yl)-pyridin-2-ylamine trihydrochloride], the IC50 in experiment [1] and in experiment [2] was 100 to 1000 nM each time.

With `COc1ccc2cc(-c3cc(-c4cnn(C5CCNCC5)c4)cnc3N)ncc2c1` [Example 44, 3-(7-Methoxyisoquinolin-3-yl)-5-(1-piperidin-4-yl-1H-pyrazol-4-yl)-pyridin-2-ylamine trihydrochloride], the IC50 in experiment [1] and in experiment [2] was 1000 to 20000 nM in each case.

Turning to `COc1ccc2cnc(-c3cc(-c4cnn(C5CCNCC5)c4)cnc3N)cc2c1` [Example 45, 3-(6-Methoxyisoquinolin-3-yl)-5-(1-piperidin-4-yl-1H-pyrazol-4-yl)-pyridin-2-ylamine trihydrochloride], the IC50 is 100 to 1000 nM in experiment [1] and 1000 to 20000 nM in experiment [2].

In the case of `Nc1ncc(-c2cnn(C3CCNCC3)c2)cc1-c1cc2cc(F)cc(F)c2cn1` [Example 46, 3-(6,8-Difluoroisoquinolin-3-yl)-5-(1-piperidin-4-yl-1H-pyrazol-4-yl)-pyridin-2-ylamine trihydrochloride salt], the figures for the IC50 in experiment [1] and in experiment [2] were 100 to 1000 nM and 1000 to 20000 nM, respectively.

One may read the IC50 as the concentration needed to halve the response being measured. Read a high IC50 as weaker potency in that assay.
